Assay results taken from patent publication US9809621B2, “Stable peptide-based PACE4 inhibitors” (SOCPRA SCIENCES SANTÉ ET HUMAINES S.E.C., priority 2011, dated 2017).
Where “and” joins values, the source holds several entries; their conditions need not be identical. Equal entries are not always repeated. Where two headings read alike, the source gives them in different places. Numbered stars: 1 amine (or outer) side, 2 acyl side, 3 side chain; on linkers, the order of the positions; unused ones are H or OH. Square brackets hold non-standard residues; d marks the D form. Peptide text beside a SMILES is read from it. * marks the point of attachment. X3 = CC(C)C[C@H](N[*:1])c1cn([C@@H](CC(C)C)C(=O)[*:2])nn1; X5 = CC(C)C/C(=C\C[C@H](CC(C)C)N[*:1])C(=O)[*:2]; NH(4-amidinobenzyl) = N=C(N)c1ccc(CN*)cc1; PEG8 = NCCOCCOCCOCCOCCOCCOCCOCCOCCC(=O)O; X1 = CC(C)CN(CC(=O)[*:2])N[*:1]; X4 = N=C(N)NCCCN(CC(N)=O)N*; Nle = CCCC[C@H](N)C(=O)O; X2 = N=C(N)NC/C=C/CN*

Experiments:
[1] = Stability following incubation with DU145 cells; type: in vitro ADME, human; conditions: human, DU145 cells, Table 1, read-out: Stability (% remaining after 48 h)
Experimental: (§1) Multiple multi-Leu variants described in Table 1 were tested for their stability following incubation with DU145 cells, wherein their cellular stability and plasmatic half-life was measured.
Consequently, the multi-Leu peptide was further modified by the addition of amino acid analogues and/or with pseudo peptide bounds which increase the protection of the modified peptides from peptidase and protease degradation. Gains in stability were also measured in vitro in tumoral prostatic human cells (DU145). Increase in stability of the variants was also measured in vivo (FIG. 4).

PACE4 = molecular target: T1, PACE4 (Homo sapiens, UniProt P29122); test: Inhibition constant (Ki) for PACE4; type: biochemical
T1 sequence (P29122 150-969): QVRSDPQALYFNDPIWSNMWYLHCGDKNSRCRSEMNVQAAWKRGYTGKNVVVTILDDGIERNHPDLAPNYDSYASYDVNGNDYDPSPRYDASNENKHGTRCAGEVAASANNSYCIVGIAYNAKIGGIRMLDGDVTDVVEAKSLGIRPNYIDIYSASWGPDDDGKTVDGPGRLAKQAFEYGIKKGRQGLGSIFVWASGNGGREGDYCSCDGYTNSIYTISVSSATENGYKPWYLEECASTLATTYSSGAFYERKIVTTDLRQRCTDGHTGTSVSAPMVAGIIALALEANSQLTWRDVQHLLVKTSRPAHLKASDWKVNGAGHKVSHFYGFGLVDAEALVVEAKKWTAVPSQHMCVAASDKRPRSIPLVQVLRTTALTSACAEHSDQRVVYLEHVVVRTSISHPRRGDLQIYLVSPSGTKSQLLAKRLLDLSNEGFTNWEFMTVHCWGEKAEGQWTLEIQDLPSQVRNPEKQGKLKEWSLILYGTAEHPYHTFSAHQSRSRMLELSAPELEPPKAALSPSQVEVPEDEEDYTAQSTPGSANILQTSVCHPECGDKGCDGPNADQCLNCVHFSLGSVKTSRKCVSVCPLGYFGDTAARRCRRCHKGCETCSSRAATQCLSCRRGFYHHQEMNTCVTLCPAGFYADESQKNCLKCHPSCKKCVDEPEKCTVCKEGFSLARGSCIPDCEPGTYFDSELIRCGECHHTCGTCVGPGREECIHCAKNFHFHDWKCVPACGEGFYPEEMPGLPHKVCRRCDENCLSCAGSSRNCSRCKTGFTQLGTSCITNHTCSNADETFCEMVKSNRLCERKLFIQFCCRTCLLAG

[2] = Plasmatic half-life / degradation by plasmatic protease; type: in vitro ADME; conditions: plasma
Experimental: as §1
Stabilisation strategy for multi-Leu variants was also assessed in presence of plasmatic protease. 8 variants protected at their N-terminal leucines were tested in order to establish their level of degradation since it is expected that N-terminal degradation will occur in absence of any modifications other than acetylation. Variants tested with azaβ3-leucine at each individual position and “click” bonds between the different leucines of the N-terminal part of the variants were protected against degradation (see FIG. 3 for modifications).

DU145 cells = conditions: MTT; for Anti-proliferative activity in DU145 cells (in words): FIG. 1C, FIG. 7
LNCaP cells = conditions: MTT
furin = furin (Homo sapiens, UniProt P09958); test: Inhibition constant (Ki) for furin; type: biochemical; conditions: read-out: Ki for furin
LNCaP tumors = test: Intratumoral treatment of LNCaP tumors in immunosuppressed mice
[3] = Table 1, read-out: Ki for PACE4

Sequence of furin (P09958 108-794): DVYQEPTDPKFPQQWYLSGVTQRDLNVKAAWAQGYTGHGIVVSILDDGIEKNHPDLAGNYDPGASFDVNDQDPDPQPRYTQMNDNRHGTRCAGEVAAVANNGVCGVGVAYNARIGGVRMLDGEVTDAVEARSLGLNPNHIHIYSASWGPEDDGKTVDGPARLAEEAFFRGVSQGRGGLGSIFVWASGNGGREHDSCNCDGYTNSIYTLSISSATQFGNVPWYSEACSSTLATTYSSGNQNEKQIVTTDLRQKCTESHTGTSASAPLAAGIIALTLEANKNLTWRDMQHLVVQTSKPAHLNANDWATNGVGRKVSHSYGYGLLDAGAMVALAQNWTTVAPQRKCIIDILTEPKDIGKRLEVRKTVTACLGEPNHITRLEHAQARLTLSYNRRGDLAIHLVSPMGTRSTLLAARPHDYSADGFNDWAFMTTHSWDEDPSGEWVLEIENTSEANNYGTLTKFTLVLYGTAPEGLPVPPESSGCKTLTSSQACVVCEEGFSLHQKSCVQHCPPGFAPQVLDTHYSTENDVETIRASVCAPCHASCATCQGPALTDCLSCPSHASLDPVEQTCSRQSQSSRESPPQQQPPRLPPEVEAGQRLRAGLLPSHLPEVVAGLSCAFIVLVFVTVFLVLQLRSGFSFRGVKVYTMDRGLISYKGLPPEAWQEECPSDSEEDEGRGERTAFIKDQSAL

CC(=O)N[C@@H](CC(C)C)c1cn([C@@H](CC(C)C)C(=O)N[C@@H](CC(C)C)C(=O)N[C@@H](CC(C)C)C(=O)N[C@@H](CCCNC(=N)N)C(=O)N[C@H](C(=O)N[C@@H](CCCCN)C(=O)N[C@@H](CCCNC(=N)N)C(N)=O)C(C)C)nn1 [ML[click]^P8-P7, Ac-L[click]LLLRVKR-NH2] (Ac-[X3]LLRVKR-NH2)
remaining at 48 h [1]: 52%
Ki (PACE4; [3]): 37 nM
half-life ([2]; Table 1): 4 ± 0.5 h

CC(=O)N[C@@H](CC(C)C)C(=O)N[C@@H](CC(C)C)C(=O)N[C@@H](CC(C)C)C(=O)N[C@@H](CC(C)C)C(=O)N[C@@H](CCCNC(=N)N)C(=O)N[C@H](C(=O)N[C@@H](CCCCN)C(=O)N[C@H](CCCNC(=N)N)C(N)=O)C(C)C [Ac-LLLLRVK-[DArg]-NH2] (Ac-LLLLRVK[dR]-NH2)
Anti-proliferative activity in DU145 cells (in words) (DU145 cells): poorly
IC50 (DU145 cells; read-out: IC50 cellular proliferation DU145, FIG. 1B/1C): 439000 ± 82000 nM
Ki (PACE4; read-out: Ki for PACE4): 1380 nM
Anti-proliferative activity in LNCaP cells (in words) (LNCaP cells; FIG. 1D): poorly
IC50 (LNCaP cells; read-out: IC50 cellular proliferation LNCaP, FIG. 1B/1D): 389000 ± 12000 nM
Ki (furin): 2600 nM

CC(=O)N[C@@H](CC(C)C)C(=O)N[C@@H](CC(C)C)C(=O)N[C@@H](CC(C)C)C(=O)N[C@@H](CC(C)C)C(=O)N[C@@H](CCCNC(=N)N)C(=O)N[C@H](C(=O)N[C@@H](CCCCN)C(=O)NCc1ccc(C(=N)N)cc1)C(C)C [ML-[AMBA]^P1, Ac-LLLLRVK-[AMBA]] (Ac-LLLLRVK-{NH(4-amidinobenzyl)})
Anti-proliferative activity in DU145 cells (in words) (DU145 cells): IC50 lower than the IC50 of the multi-Leu control

Ac-LLLSRVKR-NH2 [ML[Ser]-P5, Ac-LLLSRVKR-NH2]
remaining at 48 h [1]: 88%
Ki (PACE4; Ki for PACE4, Table 1): 11 nM
half-life ([2]; Table 1): 2.32 ± 0.04 h

CCCC[C@H](NC(C)=O)C(=O)N[C@@H](CCCC)C(=O)N[C@@H](CCCC)C(=O)N[C@@H](CCCC)C(=O)N[C@@H](CCCNC(=N)N)C(=O)N[C@H](C(=O)N[C@@H](CCCCN)C(N)=O)C(C)C [ML[Nleu]^P5-6-7-8, Ac-[Nle][Nle][Nle][Nle]RVK-NH2] (Ac-[Nle][Nle][Nle][Nle]RVK-NH2)
Ki (PACE4; Ki for PACE4, Table 1): 344 nM

CC(=O)N[C@@H](CC(C)C)C(=O)N[C@@H](CC(C)C)C(=O)N[C@@H](CC(C)C)C(=O)N[C@@H](CC(C)C)C(=O)N[C@@H](CCCNC(=N)N)C(=O)N[C@H](C(=O)N[C@@H](CCCCN)C(=O)NN(CCCNC(=N)N)CC(N)=O)C(C)C [ML[Azaβ3R]^P1, Ac-LLLLRVK[Azaβ3R]-NH2] (Ac-LLLLRVK-X4)
Ki (PACE4; [3]): 460 nM
half-life ([2]; Table 1): 5.39 ± 0.08 h

CC(=O)NCCOCCOCCOCCOCCOCCOCCOCCOCCC(=O)N[C@@H](CC(C)C)C(=O)N[C@@H](CC(C)C)C(=O)N[C@@H](CC(C)C)C(=O)N[C@@H](CC(C)C)C(=O)N[C@@H](CCCNC(=N)N)C(=O)N[C@H](C(=O)N[C@@H](CCCCN)C(=O)N[C@@H](CCCNC(=N)N)C(N)=O)C(C)C [[H2N-PEG8]-ML, Ac-[HN-PEG8]-LLLLRVKR-NH2] (Ac-[PEG8]LLLLRVKR-NH2)
remaining at 48 h [1]: 64%
half-life ([2]; Table 1): 1.3 ± 0.2 h

CCCC[C@H](NC(=O)[C@H](CC(C)C)NC(=O)[C@H](CC(C)C)NC(=O)[C@H](CC(C)C)NC(C)=O)C(=O)N[C@@H](CCCN=C(N)N)C(=O)N[C@H](C(=O)N[C@@H](CCCCN)C(=O)N[C@@H](CCCN=C(N)N)C(N)=O)C(C)C [ML[Nle]^P5] (Ac-LLL[Nle]RVKR-NH2)
Ki (PACE4; [3]): 17 nM and 37 nM

CC(=O)N[C@@H](CC(C)C)C(=O)N[C@@H](CC(C)C)c1cn([C@@H](CC(C)C)C(=O)N[C@@H](CC(C)C)C(=O)N[C@@H](CCCNC(=N)N)C(=O)N[C@H](C(=O)N[C@@H](CCCCN)C(=O)N[C@@H](CCCNC(=N)N)C(N)=O)C(C)C)nn1 [ML[click]^P7-P6, Ac-LL[click]LLRVKR-NH2] (Ac-L[X3]LRVKR-NH2)
Ki (PACE4; [3]): 600 nM
half-life ([2]; Table 1): 1 ± 0.2 h

CC(=O)N[C@H](CC(C)C)C(=O)N[C@@H](CC(C)C)C(=O)N[C@@H](CC(C)C)C(=O)N[C@@H](CC(C)C)C(=O)N[C@@H](CCCNC(=N)N)C(=O)N[C@H](C(=O)N[C@@H](CCCCN)C(=O)NCc1ccc(C(=N)N)cc1)C(C)C [[D-Leu]^P8-ML-[AMBA]^P1, Ac-[D-Leu]-LLLRVK-[AMBA]] (Ac-[dL]LLLRVK-{NH(4-amidinobenzyl)})
Plasmatic concentration of PSA (in words) (LNCaP tumors; LNCaP tumors, FIG. 9): decreased
Appearance of excised tumors (in words) (LNCaP tumors; excised LNCaP tumors, FIG. 10A): smaller and have a white appearance
Level of p27KIP in excised tumors (in words) (LNCaP tumors; immunocytochemistry, vs ML-peptide treated and untreated tumors, FIG. 10B): increased
Level of Ki67 in excised tumors (in words) (LNCaP tumors; immunocytochemistry, vs ML-peptide treated and untreated tumors, FIG. 10C): decreased
Tumor volume (in words) (LNCaP tumors; intratumorally 50 μg/48 h, LNCaP tumors, immunosuppressed mice, FIG. 8): consistently the more potent compound
half-life ([2]; Table 1): 11.3 h
half-life ([2]; Table 2): 11.3 h

CC(=O)NN(CC(=O)N[C@@H](CC(C)C)C(=O)N[C@@H](CC(C)C)C(=O)N[C@@H](CC(C)C)C(=O)N[C@@H](CCCNC(=N)N)C(=O)N[C@H](C(=O)N[C@@H](CCCCN)C(=O)N[C@@H](CCCNC(=N)N)C(N)=O)C(C)C)CC(C)C [ML[Azaβ3L]^P8]
remaining at 48 h [1]: 83%
half-life ([2]; Table 1): 2.5 ± 0.1 h

CCCC[C@H](NC(C)=O)C(=O)N[C@@H](CCCC)C(=O)N[C@@H](CC(C)C)C(=O)N[C@@H](CCCC)C(=O)N[C@@H](CCCN=C(N)N)C(=O)N[C@H](C(=O)N[C@@H](CCCCN)C(=O)N[C@@H](CCCN=C(N)N)C(N)=O)C(C)C [ML[Nle]^P5-6-8, Ac-[Nle][Nle]L[Nle]RVKR-NH2]
remaining at 48 h [1]: 41%
Ki (PACE4; Ki for PACE4, Table 1): 85 nM

CC(=O)NN(CC(=O)N[C@@H](CC(C)C)C(=O)N[C@@H](CC(C)C)C(=O)N[C@@H](CC(C)C)C(=O)N[C@@H](CCCNC(=N)N)C(=O)N[C@H](C(=O)N[C@@H](CCCCN)C(=O)NC/C=C/CNC(=N)N)C(C)C)CC(C)C [[Azaβ3L]^P8-ML-[ΔR-CO2]^P1, Ac-[Azaβ3L]LLLRVKR-[ΔR-COO]] (Ac-[X1]LLLRVK-X2)
Anti-proliferative activity in DU145 cells (in words) (DU145 cells): IC50 lower than the IC50 of the multi-Leu control
half-life ([2]; Table 1): 5.67 ± 0.07 h
half-life ([2]; Table 2): 5.67 ± 0.07 h

CC(=O)N[C@H](C/C=C(\CC(C)C)C(=O)N[C@@H](CC(C)C)C(=O)N[C@@H](CC(C)C)C(=O)N[C@@H](CCCNC(=N)N)C(=O)N[C@H](C(=O)N[C@@H](CCCCN)C(=O)N[C@@H](CCCNC(=N)N)C(N)=O)C(C)C)CC(C)C [ML[c-ene]^P8-P7, Ac-L═LLLRVKR-NH2] (Ac-[X5]LLRVKR-NH2)
half-life ([2]; Table 1): ~7.4 h
